According to patent US4061645A, “2-Trichloromethyl-5-methylsulfinyl-1,3,4-thiadiazole” (Schering Aktiengesellschaft, priority 1972, dated 1977):
Where two headings read alike, the source gives them in different places.

Assays:
[1] = system: Rhizoctonia solani; test: Rhizoctonia solani infested compost soil, marrow peas (Example 3); assay type: in vivo; conditions: for Weight of fresh plant / Root evaluation (1-4): 3 weeks; for Number of sound peas after 3 wks.: of 25 grains
Text: Steamed compost soil was inoculated with mycelium of Rhizoctonia solani. After homogeneous mixture of the products with the infested soil, the products were present in the form of 20% powder preparations, the seeding of 25 grains of marrow peas of the variety "Miracle of Kelvedon" per concentration was effected without waiting period in clay dishes holding 1 liter of soil. The table lists the number of germinated sound peas, the weight of the fresh plant, and a root evaluation after a cultivation period of three weeks at 22°-25° C.

[2] = system: Pythium ultimum; test: Limit concentration of soil-fungicidal effectiveness, Pythium ultimum, infested soil seeded with peas (Example 1); assay type: in vivo; conditions: 20 to 23 days, 22°-25° C
Experimental: (§1) Limit concentrations of the soil-fungicidal effectiveness at homogeneous mixture of the products with the infested soil. Basic condition in the evaluation are a sound root formation without fungus necroses and germination of the seed of at least 90% compared with the result obtained in steamed soil. Per concentration there were seeded 25 grains of peas of the variety "Miracle of Kelvedon" (marrow pea) without a waiting period. The cultivation time in the tests was 20 to 23 days at a temperature of 22°-25° C. Four commercial products were included in the test series.
Pythium ultimum: -- Steamed compost soil was inoculated with mycelium of Pythium ultimum

[3] = system: Pythium ultimum; test: Pythium ultimum infested compost soil, marrow peas (Example 2); assay type: in vivo; conditions: for Number of sound peas after 3 wks.: of 25 grains
Text: Steamed compost soil was inoculated with mycelium of Pythium ultimum.

[4] = system: Fusarium oxysporum f. callistephi; test: Fusarium infested compost soil, Callistephus chinesis seedlings (Example 5); assay type: in vivo; conditions: of 4 seedlings
Text: Steamed compost soil was inoculated with a spore suspension of Fusarium oxysporum f. callistephi. After homogeneous mixture of the products with the infested soil, the products were present as 20% powder preparations, and after a waiting period of 8 days, there were set out per concentration 4 seedlings of Callistephus chinesis, master aster "Sun Ray" as host plants.

[5] = system: Rhizoctonia solani; test: Limit concentration of soil-fungicidal effectiveness, Rhizoctonia solani, infested soil seeded with peas (Example 1); assay type: in vivo; conditions: for minimal effective concentration: soil, 480 h, read-out: Limit concentration of the fungicidal effectiveness
Experimental: as §1
Rhizoctania solani: -- Steamed compost soil was inoculated with mycelium of Rhizoctonia solani.

[6] = system: Thielaviopsis basicola; test: Control of Thielaviopsis basicola on tobacco (Example 10); assay type: in vivo; set-up: key to Attack 0-5: 0: no attack; 1: very slight attack; 2: slight attack; 3: medium attack; 4: strong attack; 5: very strong attack; conditions: five weeks
Experimental: Control of Thielaviopsis basicola on tobacco.
A 10% powder preparation of 2-trifluoromethyl-5-methylsulfonyl-1,3,4-thiadiazole was homogeneously admixed to a soil heavily infested by Thielaviopsis basicola. After a reaction time of one week, tobacco seedlings of the variety Nicotiana tabacum var. "White Burley" were set out and cultivated for five weeks in the greenhouse at 22°-32° C. The attack and weight of the fresh plant are evident from the table.

[7] = system: Asperqilus niger; test: Agar test (Example 7), Aspergillus; assay type: cell-based; conditions: 10 ppm; 5 days at 22° C; control 100
Experimental: (§2) The fungicidal action of the agents according to the invention was tested in artificial nutrient media against plant-pathogenic fungi in Petri dishes (agar test). The procedure was to sterilize the medium consisting of 2% malt extract and 1.5% agar-agar powder. Before the solidification of the medium, the active substances were added to it, mixing thoroughly, so that the medium received 10 parts of active substance per million (ppm). After the solidification of the medium, the latter was inoculated with a platinum dropper which contained 100 spores each of the fungi to be tested, and after five days at 22° C, an evaluation was made by measuring the diameter of the colonies in mm.

[8] = system: Helminthosporium sativum; test: Agar test (Example 7), Helminthosporium; assay type: cell-based; conditions: 10 ppm; 5 days at 22° C; control 100
Experimental: as §2

[9] = system: Stemphylium ilicis; test: Agar test (Example 7), Stemphylium; assay type: cell-based; conditions: 10 ppm; 5 days at 22° C; control 100
Experimental: as §2

[10] = system: Botrytis cinerea; test: Agar test (Example 7), Botrytis; assay type: cell-based; conditions: 10 ppm; 5 days at 22° C; control 100
Experimental: as §2

[11] = system: Colletotrichum gloeosporioides; test: Agar test (Example 7), Colletotrichum; assay type: cell-based; conditions: 10 ppm; 5 days at 22° C; control 100
Experimental: as §2

[12] = system: Damping-off Fungi; test: Cotton seed disinfection, normal compost soil (Example 6); assay type: in vivo; conditions: 100 mg active ingr. per kg of seed; 10% formulation; 15 days
Experimental: Cotton seeds disinfected with 10% formulations were seeded in normal compost soil (Damping-off Fungi), 25 grains per concentration. After a cultivation time of 15 days at 22°-25° C, the number of germinated sound cotton seedlings and their weight as fresh plants were determined.

[13] = system: Meloidogyne incognita; test: Nematocidal action, infested compost soil, cucumber seeds (Example 8); assay type: in vivo; conditions: 30 days
Experimental: The products as 20% powder preparations were homogeneously admixed with a compost soil heavily infested by root gal nematodes. Without a waiting period, 20 cucumber seeds per concentration were seeded. After a cultivation time of 30 days at a temperature of 23°-25° C, the nematocidal action was evaluated by counting the root galls formed in the waterbath. The following table states the reduction of attack in percent. In the control, an average of 90 root galls per seedling had formed.

[14] = 10 mg active ingr. per liter of soil
[15] = 20 mg active ingr. per liter of soil
[16] = 30 mg active ingr. per liter of soil
[17] = 40 mg active ingr. per liter of soil
[18] = 200 mg active ingr. per liter of soil, 3 weeks
[19] = 50 mg active ingredient per liter of soil
[20] = 100 mg active ingredient per liter of soil
[21] = 10 mg active ingr. per liter of soil, 3 weeks
[22] = 20 mg active ingr. per liter of soil, 3 weeks
[23] = 30 mg active ingr. per liter of soil, 3 weeks
[24] = 50 mg active ingr. per liter of soil
[25] = 100 mg active ingr. per liter of soil

Row | Compound | Weight of fresh plant [1, 14] | Number of sound peas after 3 wks. [1, 14] | Weight of fresh plant [1, 15] | Number of sound peas after 3 wks. [1, 15] | Weight of fresh plant [1, 16] | Number of sound peas after 3 wks. [1, 16] | Limit concentration of the fungicidal effectiveness [2] | Number of attacked plants after 3 weeks [4, 19] | Number of attacked plants after 3 weeks [4, 20] | diameter of the colonies [7] | Weight of fresh plant [3, 21] | Number of sound peas after 3 wks. [3, 14] | Weight of fresh plant [3, 22] | Number of sound peas after 3 wks. [3, 15] | Weight of fresh plant [3, 23] | diameter of the colonies [8] | diameter of the colonies [9] | diameter of the colonies [10] | minimal effective concentration ([5]; 20 to 23 days, 22°-25° C) | diameter of the colonies [11] | also measured
1 | COc1cc(Cl)c(OC)cc1Cl [1,4-dichloro-2,5-dimethoxy-benzene, 1,4-dichloro-2,5-dimethoxybenzene, reference compound] | 0 g | 0 | 0 g | 0 | 18 g | 21 | insufficient | 4 | 4 |  |  |  |  |  |  |  |  |  |  |  | Root evaluation (1-4) [1, 16]: 4; Root evaluation (1-4) [1, 17]: 4; Weight of fresh plant [1, 17]: 18 g; Number of sound peas after 3 wks. [1, 17]: 22; Root evaluation (1-4) [3, 18]: 1; Weight of fresh plant [3, 18]: 1 g; Number of sound peas after 3 wks. ([3]; 200 mg active ingr. per liter of soil): 2; Number of attacked plants after 3 weeks ([4]; 200 mg active ingredient per liter of soil): 4; minimal effective concentration [5]: 30 µg/mL
2 | CS(=O)(=O)c1nnc(C(F)(F)F)s1 [Compound 1, 2-trifluoromethyl-5-methylsulfonyl-1,3,4-thiadiazole] |  |  |  |  |  |  |  |  |  | 0 mm | 20 g | 25 | 19 g | 22 | 19 g | 0 mm | 0 mm | 0 mm | 25 µg/mL | 0 mm | Attack 0-5 [6, 15]: 0.5; Weight of fresh plant (leaves and stems) [6, 15]: 115 g; Weight of roots (air-dry) [6, 15]: 11 g; Attack 0-5 [6, 16]: 0; Weight of fresh plant (leaves and stems) [6, 16]: 118 g; Weight of roots (air-dry) [6, 16]: 11 g; Attack 0-5 [6, 17]: 0; Weight of fresh plant (leaves and stems) [6, 17]: 104 g; Weight of roots (air-dry) [6, 17]: 9 g; Number of sound peas after 3 wks. [3, 16]: 23
3 | C[S+]([O-])c1nnc(C(Cl)Cl)s1 (stereo not shown) [Compound 3, 2-dichloromethyl-5-methylsulfinyl-1,3,4-thiadiazole] | 0 g | 0 | 2 g | 2 | 21 g | 22 |  | 0 | 0 | 50 mm | 22 g | 24 | 24 g | 24 | 22 g | 0 mm | 0 mm | 36 mm | 30 µg/mL | 0 mm | Sound plants in % [12]: 100%; Weight of fresh plant [12]: 29 g; Number of sound peas after 3 wks. [3, 16]: 25; Nematocidal action in % (reduction of attack) ([13]; 40 mg per liter of soil): 100%; Nematocidal action in % (reduction of attack) ([13]; 60 mg per liter of soil): 100%
4 | C[S+]([O-])c1nnc(C(Cl)(Cl)Cl)s1 (stereo not shown) [Compound 8, 2-trichloromethyl-5-methylsulfinyl-1,3,4-thiadiazole] | 17 g | 21 | 17 g | 24 | 17 g | 24 |  | 0 | 0 | 0 mm | 12 g | 19 | 22 g | 24 | 22 g | 0 mm | 0 mm | 0 mm | 10 µg/mL | 0 mm | Sound plants in % [12]: 96%; Weight of fresh plant [12]: 29 g; Number of sound peas after 3 wks. [3, 16]: 25
5 | CS(=O)(=O)c1nnc(C(Cl)(Cl)Cl)s1 [Compound 21, 2-trichloromethyl-5-methylsulfonyl-1,3,4-thiadiazole] | 11 g | 17 | 17 g | 24 | 17 g | 24 |  | 0 | 0 | 0 mm |  |  |  |  |  | 0 mm | 0 mm | 0 mm | 10 µg/mL | 0 mm | Sound plants in % [12]: 100%; Weight of fresh plant [12]: 33 g
6 | CCCCC(Br)c1nnc(S(C)(=O)=O)s1 (stereo not shown) [Compound 52, 2-(1-bromopentyl)-5-methylsulfonyl-1,3,4-thiadiazole] |  |  |  |  |  |  | no effect |  |  |  |  |  |  |  |  |  |  |  | 100 µg/mL |  | 
7 | CC(C)CC(Br)c1nnc(S(C)(=O)=O)s1 (stereo not shown) [Compound 53, 2-(1-bromoisopentyl)-5-methylsulfonyl-1,3,4-thiadiazole] |  |  |  |  |  |  | no effect |  |  |  |  |  |  |  |  |  |  |  | 100 µg/mL |  | 
8 | CS(=O)(=O)c1nnc(C(F)(F)Cl)s1 [Compound 54] |  |  |  |  |  |  | 10 mg of active substance per lit |  |  |  |  |  |  |  |  |  |  |  |  |  | Limit concentration of the fungicidal effectiveness ([5]; 20 to 23 days, 22°-25° C): 20 mg of active substance per lit
9 | C[S+]([O-])c1nnc(C(F)(F)Cl)s1 (stereo not shown) [Compound 55] |  |  |  |  |  |  | 10 mg of active substance per lit |  |  |  |  |  |  |  |  |  |  |  |  |  | Limit concentration of the fungicidal effectiveness ([5]; 20 to 23 days, 22°-25° C): 10 mg of active substance per lit
10 | O=[N+]([O-])c1c(Cl)c(Cl)c(Cl)c(Cl)c1Cl [Pentachloronitrobenzene, pentachloronitrobenzene, reference compound] |  |  |  |  |  |  | insufficient |  |  |  |  |  |  |  |  |  |  |  |  |  | Weight of fresh plant [1, 24]: 4 g; Number of sound peas after 3 wks. [1, 24]: 4; Weight of fresh plant [1, 25]: 15 g; Number of sound peas after 3 wks. [1, 25]: 25; minimal effective concentration [5]: 75 µg/mL
